The subject of experiment [1] is Escherichia coli. The experiment is described as follows: Antibacterial activity against Escherichia coli at 50 ug/mL. It is filed as functional. The note with it: read-out: IZ.
The subject of experiment [2] is Escherichia coli. Description: Antibacterial activity against Escherichia coli at 100 ug/mL. It is filed as functional. Conditions: read-out: IZ.
Experiment [3] deals with Bacillus subtilis. The experiment is described as follows: Antibacterial activity against Bacillus subtilis at 50 ug/mL. It is filed as functional. The note with it: read-out: IZ.
Experiment [4] concerns Bacillus subtilis. Description: Antibacterial activity against Bacillus subtilis at 100 ug/mL. It is filed as functional. The note with it: read-out: IZ.
The subject of experiment [5] is Aspergillus flavus. Description: Antifungal activity against Aspergillus flavus at 50 ug/mL. It is filed as functional. Conditions: read-out: IZ.
Experiment [6] has as its system Aspergillus flavus. Description: Antifungal activity against Aspergillus flavus at 100 ug/mL. It is filed as functional. Conditions: read-out: IZ.
Experiment [7] relates to Penicillium citrinum. Description: Antifungal activity against Penicillium citrinum at 50 ug/mL. The note with it: read-out: IZ. It is filed as functional.
In experiment [8] the test system is Penicillium citrinum. The experiment is described as follows: Antifungal activity against Penicillium citrinum at 100 ug/mL. It is filed as functional. The note with it: read-out: IZ.
Experiment [9] deals with Fusarium oxysporum. Description: Antifungal activity against Fusarium oxysporum at 50 ug/mL. It is filed as functional. The note with it: read-out: IZ.
In experiment [10] the test system is Fusarium oxysporum. Description: Antifungal activity against Fusarium oxysporum at 100 ug/mL. The note with it: read-out: IZ. It is filed as functional.
The subject of experiment [11] is Escherichia coli. Description: Antibacterial activity against Escherichia coli. It is filed as functional.
Experiment [12] has as its system Bacillus subtilis. Description: Antibacterial activity against Bacillus subtilis. It is filed as functional.
The test system of experiment [13] is Aspergillus flavus. The experiment is described as follows: Antifungal activity against Aspergillus flavus. It is filed as functional.
Experiment [14] concerns Penicillium citrinum. The experiment is described as follows: Antifungal activity against Penicillium citrinum. It is filed as functional.
For experiment [15], the system named is Fusarium oxysporum. Description: Antifungal activity against Fusarium oxysporum. It is filed as functional.
The test system of experiment [16] is Salmonella typhi. The experiment is described as follows: Antibacterial activity against Salmonella typhi.
Experiment [17] relates to Salmonella typhi. The experiment is described as follows: Antibacterial activity against Salmonella typhi at 50 ug/mL. Conditions: read-out: IZ.
Experiment [18] concerns Salmonella typhi. The experiment is described as follows: Antibacterial activity against Salmonella typhi at 100 ug/mL. Conditions: read-out: IZ.

The values below come from ChEMBL document CHEMBL1240428, “Conventional and microwave assisted synthesis of some new N-[(4-oxo-2-substituted aryl -1, 3-thiazolidine)-acetamidyl]-5-nitroindazoles and its antimicrobial activity” (2010).

≈ marks a conversion by molar mass, not a printed value.

Usually MIC stands for the least concentration at which growth counts as inhibited. Higher therefore signals a need for much substance. `CCOC(=O)Cn1ncc2cc([N+](=O)[O-])ccc21`: the zone of inhibition at 50 µg/mL in the experiment on Escherichia coli [1] was 5 mm; in the experiment with Bacillus subtilis [3], 3 mm; with Aspergillus flavus [5], 5.8 mm; with Penicillium citrinum [7] it was 4 mm; in the experiment on Fusarium oxysporum [9] it was 6.5 mm; in the experiment on Salmonella typhi [17] it was 4 mm. Besides, the zone of inhibition at 100 µg/mL in the experiment on Escherichia coli [2] is 8 mm; in the experiment with Bacillus subtilis [4], 5 mm; in the experiment on Aspergillus flavus [6], 8 mm; in the experiment with Penicillium citrinum [8] it was 6 mm; with Fusarium oxysporum [10], 9 mm; in the experiment on Salmonella typhi [18], 7 mm. The minimum inhibitory concentration (MIC) in the experiment with Escherichia coli [11] was 35 µg/mL (≈ 140 µM); with Bacillus subtilis [12] it was 45 µg/mL (≈ 181 µM); in the experiment on Aspergillus flavus [13], 34 µg/mL (≈ 136 µM); against Penicillium citrinum [14], 40 µg/mL (≈ 160 µM); in the experiment with Fusarium oxysporum [15] it was 30 µg/mL (≈ 120 µM); against Salmonella typhi [16], 38 µg/mL (≈ 152 µM).

In the case of `NNC(=O)Cn1ncc2cc([N+](=O)[O-])ccc21`, the zone of inhibition at 50 µg/mL amounted to 7 mm with Escherichia coli [1]; 5 mm in the experiment with Bacillus subtilis [3]; 7 mm in the experiment on Aspergillus flavus [5]; 6 mm in the experiment on Penicillium citrinum [7]; 8.3 mm with Fusarium oxysporum [9]; 6 mm in the experiment with Salmonella typhi [17]. For the same molecule, the zone of inhibition at 100 µg/mL in the experiment on Escherichia coli [2] is 10 mm; in the experiment with Bacillus subtilis [4] it was 7 mm; in the experiment with Aspergillus flavus [6], 10 mm; in the experiment with Penicillium citrinum [8] it was 8.9 mm; with Fusarium oxysporum [10] it was 10.5 mm; in the experiment on Salmonella typhi [18], 8 mm. Besides, the minimum inhibitory concentration (MIC) amounted to 32 µg/mL (≈ 136 µM) against Escherichia coli [11]; 43 µg/mL (≈ 183 µM) against Bacillus subtilis [12]; 32 µg/mL (≈ 136 µM) against Aspergillus flavus [13]; 38 µg/mL (≈ 162 µM) with Penicillium citrinum [14]; 28 µg/mL (≈ 119 µM) in the experiment with Fusarium oxysporum [15]; 36 µg/mL (≈ 153 µM) with Salmonella typhi [16].

On to `O=C(Cn1ncc2cc([N+](=O)[O-])ccc21)N/N=C/c1ccccc1`, for which the zone of inhibition at 50 µg/mL worked out at 14 mm in the experiment on Escherichia coli [1]; 11.5 mm in the experiment with Bacillus subtilis [3]; 13.6 mm in the experiment with Aspergillus flavus [5]; 11.5 mm with Penicillium citrinum [7]; 15 mm with Fusarium oxysporum [9]; 12.7 mm in the experiment with Salmonella typhi [17]. For the same molecule, the zone of inhibition at 100 µg/mL in the experiment on Escherichia coli [2] was found to be 16.4 mm; in the experiment with Bacillus subtilis [4] it was 14.8 mm; in the experiment with Aspergillus flavus [6] it was 16.7 mm; in the experiment with Penicillium citrinum [8], 15.5 mm; with Fusarium oxysporum [10] it was 17.4 mm; in the experiment on Salmonella typhi [18], 16 mm. The MIC was 22 µg/mL (≈ 68 µM) against Escherichia coli [11]; 30 µg/mL (≈ 92.8 µM) with Bacillus subtilis [12]; 20 µg/mL (≈ 61.9 µM) with Aspergillus flavus [13]; 30 µg/mL (≈ 92.8 µM) in the experiment on Penicillium citrinum [14]; 17 µg/mL (≈ 52.6 µM) in the experiment on Fusarium oxysporum [15]; 22 µg/mL (≈ 68 µM) in the experiment with Salmonella typhi [16].

On to `COC1=CC(=O)C[C@@H](C)[C@]12Oc1c(Cl)c(OC)cc(OC)c1C2=O` [GRISEOFULVIN], for which the zone of inhibition at 50 µg/mL in the experiment with Aspergillus flavus [5] was found to be 27 mm; in the experiment with Penicillium citrinum [7], 25 mm; in the experiment on Fusarium oxysporum [9], 28 mm. Further, the zone of inhibition at 100 µg/mL with Aspergillus flavus [6] was 30 mm; in the experiment on Penicillium citrinum [8], 28 mm; in the experiment on Fusarium oxysporum [10], 32 mm. Further, the values for the MIC with Aspergillus flavus [13], in the experiment with Penicillium citrinum [14] and against Fusarium oxysporum [15] were 9 µg/mL (≈ 25.5 µM), 11 µg/mL (≈ 31.2 µM) and 6 µg/mL (≈ 17 µM), respectively.

For the molecule `CN[C@@H]1[C@H](O[C@H]2[C@H](O[C@H]3[C@H](O)[C@@H](O)[C@H](N=C(N)N)[C@@H](O)[C@@H]3N=C(N)N)O[C@@H](C)[C@]2(O)C=O)O[C@@H](CO)[C@H](O)[C@H]1O` [STREPTOMYCIN], the zone of inhibition at 50 µg/mL came to 26 mm with Escherichia coli [1], 23 mm in the experiment on Bacillus subtilis [3] and 25 mm in the experiment with Salmonella typhi [17]. In addition, the zone of inhibition at 100 µg/mL in the experiment with Escherichia coli [2] amounted to 30 mm; in the experiment with Bacillus subtilis [4], 27 mm; in the experiment on Salmonella typhi [18], 28 mm. Also, the minimal inhibitory concentration (MIC) is 8 µg/mL (≈ 13.8 µM) against Escherichia coli [11], 12 µg/mL (≈ 20.6 µM) in the experiment with Bacillus subtilis [12] and 10 µg/mL (≈ 17.2 µM) with Salmonella typhi [16].
